Like-named read-outs stand apart in the source and are kept apart here.
Tests used:
[1] = target: T1, Cannabinoid CB1 Receptor (Homo sapiens, UniProt P21554); test: Binding assay for CB1 agonists or inverse agonists (radioligand competition, membranes of transfected SK-N-MC cells)
T1 construct: expressed in transfected cells

[2] = target: T2, Cannabinoid CB2 Receptor (Homo sapiens, UniProt P34972); test: Binding assay for CB2 agonists or inverse agonists (radioligand competition, membranes of transfected SK-N-MC cells); settings: read-out: Cannabinoid CB2 Receptor Binding percent inhibition
T2 construct: expressed in transfected cells
T2 sequence (P34972 whole entry): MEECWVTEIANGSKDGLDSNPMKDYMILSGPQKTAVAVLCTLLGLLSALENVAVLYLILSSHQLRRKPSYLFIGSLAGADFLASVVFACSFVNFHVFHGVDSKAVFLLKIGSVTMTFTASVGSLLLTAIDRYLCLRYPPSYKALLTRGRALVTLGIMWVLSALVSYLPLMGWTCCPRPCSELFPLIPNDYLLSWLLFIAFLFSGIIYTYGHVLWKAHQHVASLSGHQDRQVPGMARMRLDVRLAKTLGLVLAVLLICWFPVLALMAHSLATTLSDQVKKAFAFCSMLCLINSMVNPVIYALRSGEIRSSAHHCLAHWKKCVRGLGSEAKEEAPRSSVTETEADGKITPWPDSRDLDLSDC

[3] = target: CB1 receptor (human) (Homo sapiens, UniProt P21554); test: cell-based
Chain of CB1 receptor (human) (P21554 whole entry): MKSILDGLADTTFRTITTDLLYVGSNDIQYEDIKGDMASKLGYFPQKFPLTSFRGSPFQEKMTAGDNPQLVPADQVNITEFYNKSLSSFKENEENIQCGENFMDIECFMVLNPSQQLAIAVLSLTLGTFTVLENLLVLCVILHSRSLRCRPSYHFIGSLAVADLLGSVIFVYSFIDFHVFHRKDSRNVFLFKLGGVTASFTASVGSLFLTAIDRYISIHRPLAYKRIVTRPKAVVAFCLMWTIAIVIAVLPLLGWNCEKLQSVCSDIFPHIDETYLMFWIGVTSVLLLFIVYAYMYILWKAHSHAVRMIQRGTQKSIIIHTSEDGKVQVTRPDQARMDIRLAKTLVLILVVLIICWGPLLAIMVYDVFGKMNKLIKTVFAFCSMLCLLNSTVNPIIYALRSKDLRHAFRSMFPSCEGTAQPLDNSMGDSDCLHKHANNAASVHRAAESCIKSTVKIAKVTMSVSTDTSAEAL

[4] = test concentration of 0.2 μM, compounds without an IC50 binding value

T1 sequence (P21554 whole entry): as above

Compound	IC50 [1]	inhibition at 0.2 µM [2]	EC50 [3]	inhibition at 0.2 µM [2, 4]
COc1ccc(/C=C2\CNCc3c(C(=O)NC(C)c4ccccn4)nn(-c4ccc(Cl)cc4Cl)c32)cc1 (stereo not drawn) [Cpd 49, (7E)-1-(2,4-dichloro-phenyl)-7-(4-methoxy-benzylidene)-4,5,6,7-tetrahydro-1H-pyrazolo[4,3-c]pyridine-3-carboxylic acid (1-pyridin-2-yl-ethyl)-amide]	100 nM	19%	1 nM	–
COc1ccc(/C=C2\CNCc3c(C(=O)NN4CCCCC4)nn(-c4ccc(Cl)cc4Cl)c32)cc1 [Cpd 50, (7E)-1-(2,4-dichloro-phenyl)-7-(4-methoxy-benzylidene)-4,5,6,7-tetrahydro-1H-pyrazolo[4,3-c]pyridine-3-carboxylic acid piperidin-1-ylamide]	100 nM	20%	2 nM	–
COc1ccc(/C=C2\CN(S(C)(=O)=O)Cc3c(C(=O)NN4CCCCC4)nn(-c4ccc(Cl)cc4Cl)c32)cc1 [Cpd 53, (7E)-1-(2,4-dichloro-phenyl)-5-methanesulfonyl-7-(4-methoxy-benzylidene)-4,5,6,7-tetrahydro-1H-pyrazolo[4,3-c]pyridine-3-carboxylic acid piperidin-1-ylamide]	30 nM	29%	5 nM	–
COc1ccc(/C=C2\CN(C(C)=O)Cc3c(C(=O)NN4CCCCC4)nn(-c4ccc(Cl)cc4Cl)c32)cc1 [Cpd 54, (7E)-5-acetyl-1-(2,4-dichloro-phenyl)-7-(4-methoxy-benzylidene)-4,5,6,7-tetrahydro-1H-pyrazolo[4,3-c]pyridine-3-carboxylic acid piperidin-1-ylamide]	40 nM	24%	5 nM	–
COC(=O)N1C/C(=C\c2ccc(OC)cc2)c2c(c(C(=O)NN3CCCCC3)nn2-c2ccc(Cl)cc2Cl)C1 [Cpd 55, (7E)-1-(2,4-dichloro-phenyl)-7-(4-methoxy-benzylidene)-3-(piperidin-1-ylcarbamoyl)-1,4,6,7-tetrahydro-pyrazolo[4,3-c]pyridine-5-carboxylic acid methyl ester]	5 nM	66%	2 nM	–
CCNC(=O)N1C/C(=C\c2ccc(OC)cc2)c2c(c(C(=O)NN3CCCCC3)nn2-c2ccc(Cl)cc2Cl)C1 [Cpd 56, (7E)-1-(2,4-dichloro-phenyl)-7-(4-methoxy-benzylidene)-1,4,6,7-tetrahydro-pyrazolo[4,3-c]pyridine-3,5-dicarboxylic acid 5-ethylamide 3-piperidin-1-ylamide]	20 nM	28%	7 nM	–
C[C@@H](NC(=O)c1nn(-c2ccc(Cl)cc2)c2c1CN(C(=O)OC(C)(C)C)C/C2=C\c1ccc(F)cc1)c1ccccc1 [Cpd 57, (7E)-1-(4-chloro-phenyl)-7-(4-fluoro-benzylidene)-3-[(1R)-1-phenyl-ethylcarbamoyl]-1,4,6,7-tetrahydro-pyrazolo[4,3-c]pyridine-5-carboxylic acid tert-butyl ester]	30 nM	–	20 nM	13%
COc1ccc(/C=C2\CN(S(=O)(=O)N(C)C)Cc3c(C(=O)NN4CCCCC4)nn(-c4ccc(Cl)cc4Cl)c32)cc1 [Cpd 58, (7E)-1-(2,4-dichloro-phenyl)-5-dimethylsulfamoyl-7-(4-methoxy-benzylidene)-4,5,6,7-tetrahydro-1H-pyrazolo[4,3-c]pyridine-3-carboxylic acid piperidin-1-ylamide]	20 nM	53%	3 nM	–
CCOC(=O)CN1C/C(=C\c2ccc(OC)cc2)c2c(c(C(=O)NN3CCCCC3)nn2-c2ccc(Cl)cc2Cl)C1 [Cpd 59, (7E)-[1-(2,4-dichloro-phenyl)-7-(4-methoxy-benzylidene)-3-(piperidin-1-ylcarbamoyl)-1,4,6,7-tetrahydro-pyrazolo[4,3-c]pyridin-5-yl]-acetic acid ethyl ester]	40 nM	23%	30 nM	–
COc1ccc(/C=C2\CN(C(C)=O)Cc3c(C(=O)NC(C)c4ccccn4)nn(-c4ccc(Cl)cc4Cl)c32)cc1 (stereo not drawn) [Cpd 60, (7E)-5-acetyl-1-(2,4-dichloro-phenyl)-7-(4-methoxy-benzylidene)-4,5,6,7-tetrahydro-1H-pyrazolo[4,3-c]pyridine-3-carboxylic acid (1-pyridin-2-yl-ethyl)-amide]	20 nM	–	7 nM	28%
CCNC(=O)N1C/C(=C\c2ccc(OC)cc2)c2c(c(C(=O)NC(C)c3ccccn3)nn2-c2ccc(Cl)cc2Cl)C1 (stereo not drawn) [Cpd 61, (7E)-1-(2,4-dichloro-phenyl)-7-(4-methoxy-benzylidene)-1,4,6,7-tetrahydro-pyrazolo[4,3-c]pyridine-3,5-dicarboxylic acid 5-ethylamide 3-[(1-pyridin-2-yl-ethyl)-amide]]	20 nM	7%	5 nM	–
COC(=O)N1C/C(=C\c2ccc(OC)cc2)c2c(c(C(=O)NC(C)c3ccccn3)nn2-c2ccc(Cl)cc2Cl)C1 (stereo not drawn) [Cpd 62, (7E)-1-(2,4-dichloro-phenyl)-7-(4-methoxy-benzylidene)-3-(1-pyridin-2-yl-ethylcarbamoyl)-1,4,6,7-tetrahydro-pyrazolo[4,3-c]pyridine-5-carboxylic acid methyl ester]	5 nM	70%	2 nM	–
COc1ccc(/C=C2\CN(S(C)(=O)=O)Cc3c(C(=O)NC(C)c4ccccn4)nn(-c4ccc(Cl)cc4Cl)c32)cc1 (stereo not drawn) [Cpd 63, (7E)-1-(2,4-dichloro-phenyl)-5-methanesulfonyl-7-(4-methoxy-benzylidene)-4,5,6,7-tetrahydro-1H-pyrazolo[4,3-c]pyridine-3-carboxylic acid (1-pyridin-2-yl-ethyl)-amide]	6 nM	48%	3 nM	–
COc1ccc(/C=C2\CN(S(=O)(=O)N(C)C)Cc3c(C(=O)NC(C)c4ccccn4)nn(-c4ccc(Cl)cc4Cl)c32)cc1 (stereo not drawn) [Cpd 64, (7E)-1-(2,4-dichloro-phenyl)-5-dimethylsulfamoyl-7-(4-methoxy-benzylidene)-4,5,6,7-tetrahydro-1H-pyrazolo[4,3-c]pyridine-3-carboxylic acid (1-pyridin-2-yl-ethyl)-amide]	6 nM	62%	1 nM	–
CCOC(=O)CN1C/C(=C\c2ccc(OC)cc2)c2c(c(C(=O)NC(C)c3ccccn3)nn2-c2ccc(Cl)cc2Cl)C1 (stereo not drawn) [Cpd 65, (7E)-[1-(2,4-dichloro-phenyl)-7-(4-methoxy-benzylidene)-3-(1-pyridin-2-yl-ethylcarbamoyl)-1,4,6,7-tetrahydro-pyrazolo[4,3-c]pyridin-5-yl]-acetic acid ethyl ester]	10 nM	39%	9 nM	–
C[C@@H](NC(=O)c1nn(-c2ccc(Cl)cc2)c2c1CNC/C2=C\c1ccc(F)cc1)c1ccccc1 [Cpd 66, (7E)-1-(4-chloro-phenyl)-7-(4-fluoro-benzylidene)-4,5,6,7-tetrahydro-1H-pyrazolo[4,3-c]pyridine-3-carboxylic acid [(1R)-1-phenyl-ethyl]-amide]	20 nM	–	10 nM	5%
COC(=O)N1C/C(=C\c2ccc(F)cc2)c2c(c(C(=O)N[C@H](C)c3ccccc3)nn2-c2ccc(Cl)cc2)C1 [Cpd 67, (7E)-1-(4-chloro-phenyl)-7-(4-fluoro-benzylidene)-3-[(1R)-1-phenyl-ethylcarbamoyl]-1,4,6,7-tetrahydro-pyrazolo[4,3-c]pyridine-5-carboxylic acid methyl ester]	5 nM	19%	1 nM	–
CC(=O)N1C/C(=C\c2ccc(F)cc2)c2c(c(C(=O)N[C@H](C)c3ccccc3)nn2-c2ccc(Cl)cc2)C1 [Cpd 68, (7E)-5-acetyl-1-(4-chloro-phenyl)-7-(4-fluoro-benzylidene)-4,5,6,7-tetrahydro-1H-pyrazolo[4,3-c]pyridine-3-carboxylic acid [(1R)-1-phenyl-ethyl]-amide]	20 nM	11%	3 nM	–
CCNC(=O)N1C/C(=C\c2ccc(F)cc2)c2c(c(C(=O)N[C@H](C)c3ccccc3)nn2-c2ccc(Cl)cc2)C1 [Cpd 69, (7E)-1-(4-chloro-phenyl)-7-(4-fluoro-benzylidene)-1,4,6,7-tetrahydro-pyrazolo[4,3-c]pyridine-3,5-dicarboxylic acid 5-ethylamide 3-{[(1R)-1-phenyl-ethyl]-amide}]	30 nM	0%	5 nM	–
C[C@@H](NC(=O)c1nn(-c2ccc(Cl)cc2)c2c1CN(S(=O)(=O)N(C)C)C/C2=C\c1ccc(F)cc1)c1ccccc1 [Cpd 70, (7E)-1-(4-chloro-phenyl)-5-dimethylsulfamoyl-7-(4-fluoro-benzylidene)-4,5,6,7-tetrahydro-1H-pyrazolo[4,3-c]pyridine-3-carboxylic acid [(1R)-1-phenyl-ethyl]-amide]	9 nM	13%	1 nM	–
C[C@@H](NC(=O)c1nn(-c2ccc(Cl)cc2)c2c1CN(S(C)(=O)=O)C/C2=C\c1ccc(F)cc1)c1ccccc1 [Cpd 71, (7E)-1-(4-chloro-phenyl)-7-(4-fluoro-benzylidene)-5-methanesulfonyl-4,5,6,7-tetrahydro-1H-pyrazolo[4,3-c]pyridine-3-carboxylic acid [(1R)-1-phenyl-ethyl]-amide]	4 nM	3%	1 nM	–
CCOC(=O)CN1C/C(=C\c2ccc(F)cc2)c2c(c(C(=O)N[C@H](C)c3ccccc3)nn2-c2ccc(Cl)cc2)C1 [Cpd 72, (7E)-[1-(4-chloro-phenyl)-7-(4-fluoro-benzylidene)-3-[(1R)-1-phenyl-ethylcarbamoyl]-1,4,6,7-tetrahydro-pyrazolo[4,3-c]pyridin-5-yl]-acetic acid ethyl ester]	10 nM	17%	5 nM	–
